Molecules are shown by their SMILES. Counter-ions that a name gives are not always drawn.

This assay has as its target T1, human LCE (Homo sapiens, UniProt Q9H5J4).
T1 sequence (Q9H5J4 1-265): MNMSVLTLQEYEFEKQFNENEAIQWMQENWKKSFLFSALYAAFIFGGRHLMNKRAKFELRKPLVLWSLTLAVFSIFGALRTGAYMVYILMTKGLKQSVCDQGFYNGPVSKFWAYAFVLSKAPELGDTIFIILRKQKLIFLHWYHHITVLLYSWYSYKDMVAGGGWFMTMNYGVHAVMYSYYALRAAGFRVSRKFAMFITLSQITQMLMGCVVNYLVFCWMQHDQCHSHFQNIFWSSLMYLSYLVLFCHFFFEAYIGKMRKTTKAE
Briefly: LCE enzyme activity-inhibitory test. To be noted: [14C]-malonyl CoA / palmitoyl CoA substrate, 37° C., 90 minutes. Type of assay: biochemical. The procedure:
Pharmacological Test Example 1 (LCE Enzyme Activity-inhibitory Test)
A test compound was dissolved in dimethyl sulfoxide (DMSO to be 10 mM), and then diluted with DMSO to prepare a 1000-fold concentrated solution of the test concentration. An improved Moon et al's method (J. Biol. Chem., Vol. 276, pp. 45358-45366, 2001) was employed for the LCE enzyme activity-inhibitor test. Concretely, the diluted compound was applied to a 96-well assay plate (Corning, 96-well assay block) in an amount of 1.0 μL/well; 50 μL of a phosphate buffer solution (100 mM potassium phosphate buffer, pH 6.5), and 25 μL of a substrate solution (100 mM potassium phosphate buffer (pH 6.5), 4.0 μM rotenone, 80 μM fatty acid-free bovine serum albumin, 160 μM palmitoyl CoA, 80 μM malonyl CoA, 3.5 μM [^14C]-malonyl CoA (1.92 GBq/mmol, by Amersham)) were added to each well; 25 μL of an enzyme solution (100 mM potassium phosphate buffer (pH 6.5), 100 μg/mL human LCE) was added thereto; the top of the plate was airtightly sealed up; and this was incubated with gently shaking and stirring at 37° C. for 90 minutes. Next, 100 μL of 5 M hydrochloric acid was added to each well, and the assay plate was stirred at room temperature for 5 minutes to stop the enzyme reaction with hydrolyzing the acyl CoA. Next, the enzyme reaction solution in each well was adsorbed by each well of a 96-well GF/C filter plate (Perkin Elmer Unifilter 96 GF/C); the individual wells were washed with water to remove the non-adsorbed malonyl CoA; and the GF/C filter plate was dried at 50° C. for 60 minutes. Next, 30 μL of a scintillator (Perkin Elmer Microscinti 0) was added to each well; then the top of the plate was sealed up; and the fixed [^14C] radioactivity was measured with a microplate scintillation counter (Perkin Elmer TopCount) to be the enzyme activity. The human LCE enzyme-inhibitory activity of the test compound was calculated, based on the radioactivity of the DMSO-added well with no test compound therein as a control.
Take `CC(C)Oc1ccc(NC(=O)CCc2cccc(S(=O)(=O)N3CCCCC3)c2)cc1` [Example 162, N-(4-isopropoxyphenyl)-3-[3-(piperidin-1-ylsulfonyl)phenyl]propanamide]: it took 1500 nM to reach half-maximal inhibition (IC50). With `CC(C)c1ccc(NC(=O)c2cccc(S(=O)(=O)N3CCCC(O)C3)c2)cc1` (centres unmarked) [Example 32, 3-[(3-Hydroxypiperidin-1-yl)sulfonyl]-N-(4-isopropylphenyl)benzamide] the figure was 100 nM; with `O=C(Nc1ccc(Oc2ccccc2)nc1)c1cccc(S(=O)(=O)N2CCCCC2)c1` [Example 101, N-(6-phenoxypyridin-3-yl)-3-(piperidin-1-ylsulfonyl)benzamide], 910 nM.

For `CC(C)Oc1ccc(NC(=O)c2cccc(S(=O)(=O)N3CCc4[nH]ncc4C3)c2)cc1` [Example 3, N-(4-isopropoxyphenyl)-3-(1,4,6,7-tetrahydro-5H-pyrazolo[4,3-c]pyridin-5-ylsulfonyl)benzamide trifluoroacetate], the IC50 (usually the concentration that gives 50% inhibition) was 7400 nM. The molecule `CC(C)c1ccc(NC(=O)c2cccc(S(=O)(=O)N3CCCCC3C)c2)cc1` (centres unmarked) [Example 30, N-(4-isopropylphenyl)-3-[(2-methylpiperidin-1-yl)sulfonyl]benzamide] displayed an IC50 of 100 nM. With `COc1cccnc1NC(=O)c1cccc(S(=O)(=O)C2CCCCC2)c1` [Example 147, 3-(Cyclohexylsulfonyl)-N-(3-methoxypyridin-2-yl)benzamide] the figure was 190 nM; with `CC(C)c1ccc(NC(=O)c2cccc(S(=O)(=O)N3CCCC3)c2)cc1` [Example 28, N-(4-isopropylphenyl)-3-(pyrrolidin-1-ylsulfonyl)benzamide], 170 nM; with `CC(C)Oc1cc(NC(=O)c2cccc(S(=O)(=O)N3CCC(F)CC3)c2)[nH]n1` [Example 67, 5-({3-[(4-fluoropiperidin-1-yl)sulfonyl]benzoyl}amino)-3-isopropoxy-1H-pyrazole hydrochloride], 10 nM.

In turn, `CC(C)Oc1cc(NC(=O)c2cccc(S(=O)(=O)N3CCOCC3)c2)[nH]n1` [Example 63, 3-Isopropoxy-5-{[3-(morpholin-4-ylsulfonyl)benzoyl]amino}-1H-pyrazole hydrochloride] showed a half-maximal inhibitory concentration (IC50) of 18 nM. The result for `CC(C)Oc1ccc(NC(=O)c2cccc(S(=O)(=O)c3cnccn3)c2)cc1` [Example 141, N-(4-isopropoxyphenyl)-3-(pyrazin-2-ylsulfonyl)benzamide] reads 1500 nM; that for `CC(C)Oc1ccc(NC(=O)c2cccc(S(=O)(=O)N3CC4CCC3CC4)c2)cc1` [Example 16, 3-(2-Azabicyclo[2.2.2]oct-2-ylsulfonyl)-N-(4-isopropoxyphenyl)benzamide], 110 nM. For the molecule `CC(C)c1ccc(NC(=O)c2cccc(S(=O)(=O)N3CCCC(C(N)=O)C3)c2)cc1` (centres unmarked) [Example 34, 1-[(3-{[(4-Isopropylphenyl)amino]carbonyl]phenyl)sulfonyl}piperidine-3-carboxamide], inhibition was half-maximal at 53 nM (IC50).

In the case of `COc1ccccc1NC(=O)c1cccc(S(=O)(=O)N2CCCC(CO)C2)c1` (centres unmarked) [Example 42, 3-{[3-(hydroxymethyl)piperidin-1-yl]sulfonyl}-N-(2-methoxyphenyl)benzamide], the half-maximal inhibitory concentration (IC50) was found to be 500 nM. Consider `O=C(NCc1ccccc1)c1cccc(S(=O)(=O)N2CCCCC2)c1` [Example 73, N-benzyl-3-(piperidin-1-ylsulfonyl)benzamide], for which the IC50 turned out to be 5500 nM. The result for `O=C(Nc1ccc(OC(CF)CF)cc1F)c1cccc(S(=O)(=O)c2ccccn2)c1` [Example 124, N-{2-fluoro-4-[2-fluoro-1-(fluoromethyl)ethoxy]phenyl}-3-(pyridin-2-ylsulfonyl)benzamide] reads 350 nM; that for `COc1ccc(NC(=O)c2cccc(S(=O)(=O)N3CCCCC3)c2)c(OC)n1` [Example 96, N-(2,6-dimethoxypyridin-3-yl)-3-(piperidin-1-ylsulfonyl)benzamide], 320 nM; that for `CC(C)Oc1ccc(NC(=O)c2cccc(S(=O)(=O)N3CCCC(OCc4ccccn4)C3)c2)cc1` (centres unmarked) [Example 21, N-(4-isopropoxyphenyl)-3-{[3-(pyridin-2-ylmethoxy)piperidin-1-yl]sulfonyl}benzamide trifluoroacetate], 200 nM.

`CC(C)Oc1ccc(NC(=O)c2cccc(S(=O)(=O)c3nc[nH]n3)c2)cc1` [Example 142, N-(4-isopropoxyphenyl)-3-(1H-1,2,4-triazol-3-ylsulfonyl)benzamide] registered a 50% inhibitory concentration (IC50) of 5100 nM. In turn, `COc1cccnc1NC(=O)c1cccc(S(=O)(=O)N2C[C@H]3C[C@@H]2CO3)c1` [Example 53, N-(3-methoxypyridin-2-yl)-3-[(1R,4R)-2-oxa-5-azabicyclo[2.2.1]hept-5-ylsulfonyl]benzamide] returned a half-maximal inhibitory concentration (IC50) of 7600 nM. The IC50 values of the last two molecules are within 1.5-fold of each other.

Molecule `CC(C)Oc1ccc(NC(=O)c2cccc(S(=O)(=O)c3ccccn3)c2)nc1Br` [Example 129, N-(6-bromo-5-isopropoxypyridin-2-yl)-3-(pyridin-2-ylsulfonyl)benzamide] yielded an IC50 of 4500 nM. Against the preceding molecule, the IC50 is about 1.7-fold lower. With `COc1ccc(NC(=O)c2cccc(S(=O)(=O)C3CCCCC3)c2)cc1` [Example 146, 3-(Cyclohexylsulfonyl)-N-(4-methoxyphenyl)benzamide] the figure was 1100 nM. Turning to `CC(=O)c1ccc(NC(=O)c2cccc(S(=O)(=O)N3CCCCC3)c2)cc1` [Example 92, N-(4-acetylphenyl)-3-(piperidin-1-ylsulfonyl)benzamide], the half-maximal inhibitory concentration (IC50) stood at 9100 nM. Turning to `COc1cccnc1NC(=O)c1cccc(S(=O)(=O)N2C3CCC2CC3)c1` [Example 52, 3-(7-Azabicyclo[2.2.1]hept-7-ylsulfonyl)-N-(3-methoxypyridin-2-yl)benzamide], it took 930 nM to reach half-maximal inhibition (IC50). This IC50 is about 9.8-fold lower than that of the molecule before. With `CC(C)Oc1ccc(NC(=O)c2cccc(S(=O)(=O)N3CCC[C@H]3C)c2)cc1` [Example 24, N-(4-isopropoxyphenyl)-3-{[(2R)-2-methylpyrrolidin-1-yl]sulfonyl}benzamide] the figure was 670 nM.

Consider `COc1ccc(S(=O)(=O)N2CCCCC2)cc1C(=O)Nc1ccc(C(C)C)cc1` [Example 150, N-(4-isopropylphenyl)-2-methoxy-5-(piperidin-1-ylsulfonyl)benzamide], for which the IC50 worked out at 31 nM. Take `COc1ccccc1NC(=O)c1cccc(S(=O)(=O)N2CCC[C@@H](O)C2)c1` [Example 41, 3-{[(3R)-3-hydroxypiperidin-1-yl]sulfonyl}-N-(2-methoxyphenyl)benzamide]: half-maximal inhibition (IC50) required 5100 nM.

Consider `CCOc1ccc(S(=O)(=O)N2CCCCC2)cc1C(=O)Nc1ccc(OC(C)C)cc1` [Example 152, 2-Ethoxy-N-(4-isopropoxyphenyl)-5-(piperidin-1-ylsulfonyl)benzamide], for which the half-maximal inhibitory concentration (IC50) was 180 nM.

Turning to `CC(C)Oc1cc(NC(=O)c2cccc(S(=O)(=O)c3ccccn3)c2)[nH]n1` [Example 116, N-(3-isopropoxy-1H-pyrazol-5-yl)-3-(pyridin-2-ylsulfonyl)benzamide], the half-inhibitory concentration (IC50) came to 12 nM. `CC(C)Oc1ccc(NC(=O)c2cccc(S(=O)(=O)c3ncccn3)c2)cc1` [Example 139, N-(4-isopropoxyphenyl)-3-(pyrimidin-2-ylsulfonyl)benzamide] gave a half-inhibitory concentration (IC50) of 130 nM. With `CC(C)Oc1ccc(NC(=O)c2cccc(S(=O)(=O)N3CCCCC3)c2)cc1` [Example 91, N-(4-isopropoxyphenyl)-3-(piperidin-1-ylsulfonyl)benzamide] the figure was 31 nM. The result for `CCOc1cc(NC(=O)c2cccc(S(=O)(=O)c3ccccn3)c2)[nH]n1` [Example 117, N-(3-ethoxy-1H-pyrazol-5-yl)-3-(pyridin-2-ylsulfonyl)benzamide] reads 280 nM; that for `COc1cccnc1NC(=O)c1cccc(S(=O)(=O)N2CCOCC2)c1` [Example 47, N-(3-methoxypyridin-2-yl)-3-(morpholin-4-ylsulfonyl)benzamide], 1400 nM; that for `CC(C)c1ccc(NC(=O)c2cccc(S(=O)(=O)N3[C@H](C)CCC[C@@H]3C)c2)cc1` [Example 31, 3-{[(2R,6S)-2,6-dimethylpiperidin-1-yl]sulfonyl}-N-(4-isopropylphenyl)benzamide], 2800 nM. With `CC(C)Oc1ccc(NC(=O)c2cccc(S(=O)(=O)N3CC4CCC3C4)c2)cc1` (centres unmarked) [Example 2, 3-(2-Azabicyclo[2.2.1]hept-2-ylsulfonyl)-N-(4-isopropoxyphenyl)benzamide] the figure was 36 nM; with `CC(C)(O)c1ccc(NC(=O)c2cccc(S(=O)(=O)N3CCCCC3)c2)cc1` [Example 94, N-[4-(1-hydroxy-1-methylethyl)phenyl]-3-(piperidin-1-ylsulfonyl)benzamide], 5100 nM.

These data come from US8420823B2, “Long-chain fatty acyl elongase inhibitor comprising arylsulfonyl derivative as active ingredient” (MSD K.K., priority 2008, dated 2013).
